In patent publication US9301963B2, “Treatment tool and method of gradual withdrawal from bezodiazepine dependency” (priority 2011, dated 2016):

Assays:
CYP 450 enzymes = conditions: cited from earlier work
[1] = tested on: benzodiazepine-dependent patient; test: Gradual liquid micro-taper withdrawal from benzodiazepine dependency in patients; conditions: for daily dosage at which withdrawal symptoms once again emerge during the taper: patients tapered at the found daily reduction rate, typical value
[2] = Solvent / liquid delivery medium in which the benzo is soluble
[3] = tested on: benzodiazepine-dependent patient; test: Step taper method (comparison, FIG. 3); conditions: step taper abruptly halted at 0.5 mg

Structure (SMILES): O=C1Nc2ccc(Cl)cc2C(c2ccccc2Cl)=NC1O (centres unmarked) [Lorazepam]
- metabolism by CYP 450 enzyme pathways (CYP 450 enzymes): not metabolized by the CYP 450 enzyme pathways

Structure (SMILES): CNC1=Nc2ccc(Cl)cc2C(c2ccccc2)=[N+]([O-])C1 [Chlordiazepoxide]
- daily dosage at which withdrawal symptoms once again emerge during the taper [1]: ~12.5 mg

Structure (SMILES): O=C1CN=C(c2ccccc2Cl)c2cc([N+](=O)[O-])ccc2N1 [Clonazepam]
- daily dosage at which withdrawal symptoms once again emerge during the taper [1]: ~0.25 mg
- suitability of fat/water emulsion as liquid in which the benzo is soluble ([2]; 4% fat homogenized milk): suitable
- half-life (CYP 450 enzymes): relatively long half-life
- metabolites (CYP 450 enzymes): no active metabolites

Structure (SMILES): O=C1Nc2ccc(Cl)cc2C(c2ccccc2)=NC1O (centres unmarked) [Oxazepam]
- metabolism by CYP 450 enzyme pathways (CYP 450 enzymes): not metabolized by the CYP 450 enzyme pathways

Structure (SMILES): Cc1nnc2n1-c1ccc(Cl)cc1C(c1ccccc1)=NC2 [Alprazolam]
- correct solvent [2]: ethanol

Structure (SMILES): CN1C(=O)CN=C(c2ccccc2)c2cc(Cl)ccc21 [Diazepam]
- post withdrawal syndrome after step taper [3]: causes the feared post withdrawal syndrome
- daily dosage cut that is often the limit ([1]; daily reduction, increased gradually from 0.05 mg): 0.1 mg
- post withdrawal syndrome after taper ([1]; method of the patent, line 310, taper to zero milligrams): eliminates the post withdrawal syndrome
- symptom escalation during taper (FIG. 3) ([1]; patient on 14.0 mg starting dose, method of the patent, line 310): no symptom escalation from dosage reduction
- daily dosage at which withdrawal symptoms once again emerge during the taper [1]: ~5.0 mg
- amount of ethanol to create a useable solution ([2]; ethanol): about 0.19 mL ethanol per 1.0 mg
